Values belong to the compound of their own block, whether it stands above or below them.
Key:
[1] = tested on: brown adipose tissue precursor cells (UCP1); assay: BAT differentiation: UCP1 protein by Western blot in BAT precursor cells; format: cell-based, mice; details: 7 days
Procedure: Precursors of BAT are isolated from the interscapular adipose pad of either normal or diabetic mice and cultured in vitro as described below based on the modifications recited in Petrovic N, Shabalina I G, Timmons J A, Cannon B, Nedergaard J. Am. J. Physiol. Endocrinol. Metab. 295:E287-E296, 2008, hereby incorporated by reference.
The brown fat pads are pooled and minced, digested for 45 minutes in isolation buffer containing 0.15% (wt/vol) collagenase. The cell suspension is filtered through a 100 un nylon filter and centrifuged at 200×g for 5 minutes. The pellet containing the preadipocytes is resuspended in 1.2 ml/animal of DMEM containing 10% FBS, 10 mM HEPES, 25 μg/ml sodium ascorbate, 100 U/ml penicillin, and 100 μg/ml streptomycin. The resuspended preadipocytes are distributed into 6 well plates and grown at 37° C. in an atmosphere of 10% CO2 in air with 80% humidity. The medium is changed on the first day and then every second day until confluent.
Cells are then treated with the compounds, compound salts, or co-crystals thereof being assayed for BAT differentiation. This treatment can occur simultaneously with, after, or before strategies to increase intracellular cyclic nucleotides. The development of the BAT phenotype is assessed by direct measure of the uncoupling protein 1 (UCP1), which is emblematic of brown adipose cells.
Following treatment of the cells, the growth medium is aspirated, rinsed with PBS, and lysed with KHM buffer containing 1% Igepal CA-630, and a protease inhibitor cocktail. The lysate is centrifuged at 8,000×g for 5 minutes (4° C.), the supernatant containing the cell lysate is collected and total protein analyzed using the BCA method. 20 μg/lane of cell lysate is run on 10-20% Tris glycine gels under reducing conditions and the proteins transferred to PVDF membranes. Western blotting is conducted using UCP1 polyclonal 1° antibody, an HRP conjugated 2° antibody, and imaged using enhanced chemiluminescence reagents and imaging film. Densitometry is conducted on the scanned films using ImageJ software and analyzed using GraphPad Prism software.

PGC-1α = assay: Expression of PGC-1α mRNA in precursor BAT cells with norepinephrine (quantitative PCR); format: cell-based, mice; details: for PGC-1α message (mRNA): 3 μM compound for seven days, then 1 μM norepinephrine for 2 hours
Procedure: Another example of the ability of augmented signaling between cyclic nucleotides and compounds of Formula I is shown by the effect on expression of PGC-1α, a known regulator of mitochondrial biogenesis. Increased numbers of mitochondria are predictive of utility for the reduction of body weight.
Precursor BAT cells were isolated as described above and treated with or without 3 μM compounds: 1.] Compound A: 5-(4-(2-(5-ethylpyridin-2-yl)-2-oxoethoxy)benzyl)-1,3-thiazolidine-2,4-dione; 2.] Compound F: 5-((4-(2R)-2-(5-ethylpyridin-2-yl)-2-hydroxyethoxyl)benzyl)-1,3-thiazolidine-2,4-dione; or 3.] Compound G: 5-(4-(2-(3-methoxyphenyl)-2-oxoethoxy)benzyl)-1,3-thiazolidine-2,4-dione for seven days followed by treatment with 1 μM norepinephrine for 2 hours. Total RNA was isolated from the cells and the RNA message (mRNA) for PGC-1α was measured by quantitative polymerase chain reactions.

[2] = AUC of compound related materials after oral dosing of Compound G forms; format: in vivo; details: cynomolgus monkeys, 250 mg free acid equivalents, formulated tablets
Procedure: Referring to FIG. 9, the area under the curve (AUC) of compound related materials was compared following dosing of 250 mg of Compound G as powder in capsules of free acid (PIC), formulated tablets of micronized free acid, or formulated tablets of the Na or K salt of […] given at the same free acid equivalents. (N=4 cynomolgus monkeys). The formulated, compressed tablet also contained in each case approximately 40.5% lactose, 16.8% microcrystalline cellulose, 1.9% Croscarmellose sodium, 0.5% colloidal silicon dioxide, and 0.9% magnesium stearate.

[3] = Bioavailability of sodium salt of Compound A, oral capsule versus iv injection; format: in vivo; details: male cynomolgus monkeys, oral gavage, 90 mg free base equivalents in capsules, absolute availability versus iv
Procedure: The monkeys fasted overnight and were dosed by oral gavage washed down with 10 ml tap water. Blood samples were taken at 0.25, 0.5, 1, 2, 3, 4, 6, 9, 12, 24, and 48 hours after a single dosage was administered and assayed for drug related materials with a LCMS assay using an internal standard. 90 mg of drug was put in 00 gelatin capsules containing 90 mg of free base equivalents. This was compared to an iv injection of 2 ml/kg and 45 mg of free base solution in 50% hydroxypropyl b-cyclodextran. The absolute availability versus an iv injection was determined for both parent compound and major metabolite.

diabetic KKAy mouse = assay: Blood glucose lowering in the diabetic KKAy mouse; format: in vivo; details: diabetic KKAy mice, gavage once daily, glucose measured after 4 daily doses
Procedure: In these experiments, free base or sodium salt was given to diabetic KKAy mice (N=6) and blood glucose was measured after 4 days of daily treatment at the doses indicated. KKAy mice, 8-12 weeks of age, were given the doses of the compounds according to the dosages on the X axis of FIG. 10. The compounds were given by gavage once daily at […]. On the fifth day (after 4 daily doses at the levels show) a blood sample was taken to measure plasma glucose.

Structure (SMILES): CCc1ccc(C(=O)COc2ccc(CC3SC(=O)NC3=O)cc2)nc1 (centres unmarked) [Compound A, 5-{4-[2-(5-ethylpyridin-2-yl)-2-oxoethoxy]benzyl}-1,3-thiazolidine-2,4-dione]
amount of UCP1 (Western blot) ([1]; 0.1 to 10 μM): dose-dependent increase
PGC-1α message (mRNA) (PGC-1α): an increase in PGC-1α message was observed

Structure (SMILES): COc1cccc([C@H](F)COc2ccc(CC3SC(=O)NC3=O)cc2)c1 (stereo partly drawn) [Compound B, 5-(4-((S)-2-fluoro-2-(3-methoxyphenyl)ethoxy)benzyl)thiazolidine-2,4-dione]
amount of UCP1 (Western blot) ([1]; 0.1 to 3 μM): dose-dependent increase

Structure (SMILES): COc1cccc([C@@H](F)COc2ccc(CC3SC(=O)NC3=O)cc2)c1 (stereo partly drawn) [Compound C, 5-(4-((R)-2-fluoro-2-(3-methoxyphenyl)ethoxy)benzyl)thiazolidine-2,4-dione]
amount of UCP1 (Western blot) ([1]; 0.1 to 3 μM): dose-dependent increase

Structure (SMILES): CCc1ccc([C@H](F)COc2ccc(CC3SC(=O)NC3=O)cc2)nc1 (stereo partly drawn) [Compound D, 5-(4-((S)-2-(5-ethylpyridin-2-yl)-2-fluoroethoxy)benzyl)thiazolidine-2,4-dione]
amount of UCP1 (Western blot) ([1]; 3 to 10 μM): dose-dependent increase

Structure (SMILES): CCc1ccc([C@@H](F)COc2ccc(CC3SC(=O)NC3=O)cc2)nc1 (stereo partly drawn) [Compound E, 5-(4-((R)-2-(5-ethylpyridin-2-yl)-2-fluoroethoxy)benzyl)thiazolidine-2,4-dione]
amount of UCP1 (Western blot) ([1]; 3 to 10 μM): dose-dependent increase

Structure (SMILES): CCc1ccc([C@@H](O)COc2ccc(CC3SC(=O)NC3=O)cc2)nc1 (stereo partly drawn) [Compound F, 5-((4-(2R)-2-(5-ethylpyridin-2-yl)-2-hydroxyethoxyl)benzyl)-1,3-thiazolidine-2,4-dione]
PGC-1α message (mRNA) (PGC-1α): an increase in PGC-1α message was observed

Structure (SMILES): COc1cccc(C(=O)COc2ccc(CC3SC(=O)NC3=O)cc2)c1 (centres unmarked) [Compound G, 5-{4-[2-(3-methoxyphenyl)-2-oxoethoxy]benzyl}-1,3-thiazolidine-2,4-dione]
PGC-1α message (mRNA) (PGC-1α): an increase in PGC-1α message was observed

Structure (SMILES): NC[C@H](O)c1ccc(O)c(O)c1 [norepinephrine, reference compound]
PGC-1α mRNA (PGC-1α; norepinephrine alone, 1 μM for 2 hours, absence of compound (control)): did not produce an increase

bioavailability (AUC of compound related materials) versus free acid counterparts [2]: significantly higher bioavailability
Structure (SMILES): COc1cccc(C(=O)COc2ccc(CC3SC(=O)[N-]C3=O)cc2)c1.[K+] (centres unmarked) [potassium salt of Compound G, Potassium 5-{4-[2-(3-methoxyphenyl)-2-oxoethoxy]benzyl}-2,4-dioxo-1,3-thiazolidin-3-ide]

bioavailability of major metabolite versus free base counterpart [3]: significantly higher bioavailability
bioavailability of parent compound versus free base counterpart [3]: significantly higher bioavailability
Structure (SMILES): CCc1ccc(C(=O)COc2ccc(CC3SC(=O)[N-]C3=O)cc2)nc1.[Na+] (centres unmarked) [sodium salt of Compound A, Sodium 5-{4-[2-(5-ethylpyridin-2-yl)-2-oxoethoxy]benztl}-2,4-dioxo-1,3-thiazolidin-3-ide]
lowering blood glucose (diabetic KKAy mouse): excellent dose response

bioavailability (AUC of compound related materials) versus free acid counterparts [2]: significantly higher bioavailability
Structure (SMILES): COc1cccc(C(=O)COc2ccc(CC3SC(=O)[N-]C3=O)cc2)c1.[Na+] (centres unmarked) [sodium salt of Compound G, Sodium 5-{4-[2-(3-methoxyphenyl)-2-oxoethoxy]benztl}-2,4-dioxo-1,3-thiazolidin-3-ide]

Source: US20120316138A1, “PPAR-SPARING THIAZOLIDINEDIONES AND COMBINATIONS FOR THE TREATMENT OF OBESITY AND OTHER METABOLIC DISEASES” (METABOLIC SOLUTIONS DEVELOPMENT COMPANY, LLC, priority 2009, published 2012)
